Data from publication PMC11428593 (Antibiotics, 2024).
In brackets after ≈: the same amount, converted by molar mass.

Tests used:
Format in all cases: cell-based, Staphylococcus aureus
[1] = system: S. aureus strain USA300LAC established biofilm; assay: Biofilm eradication assay (crystal violet); conditions: at or below 4× MIC, 24 h, in words
Experimental: (§1) The establishment of a bacterial biofilm usually begins with pathogen attachment to biotic and abiotic surfaces, and S. aureus is notorious for its ability to form biofilms on surfaces, such as implants and catheters, which presents a unique treatment challenge.
(§2) Overnight cultures of S. aureus strain USA300LAC were diluted into fresh TSB to an OD600nm = 0.001 and incubated aerobically at 37 °C until the mid-log phase. (A) To detect effects on biofilm formation, cultures were diluted to an OD600nm = 0.0001 in the presence and absence of JC-01-074 and vancomycin at concentrations of 0.5–4× MIC, respectively. (B) To detect effects on biofilm eradication, cultures were diluted to an OD600nm = 0.0001 and incubated under static conditions for 24 h, after which planktonic cells were removed, and the preformed biofilms were washed twice with PBS. […] Biofilm mass was quantified after 20 h via crystal violet staining. One-way ANOVA, Dunnett’s multiple-comparison test (* p < 0.05, ** p < 0.01); (n = 3, ±S.D.).
The overnight USA300LAC cultures were diluted 1000-fold into the TSB media and incubated under shaking conditions at 37 °C until the mid-log phase. […] After 24 h of incubation, biofilm eradication was assessed via CV staining at 595 nm in a Tecan 200 Infinite Pro microplate reader (Tecan, Morgan Hill, CA, USA).

[2] = system: S. aureus strain USA300LAC biofilm; assay: Inhibition of biofilm formation (crystal violet); conditions: up to 4× MIC, in words
Experimental: as §1, §2
The overnight USA300LAC cultures were diluted 1000-fold into the fresh TSB media and incubated under shaking conditions at 37 °C until the mid-log phase. The cultures were subsequently diluted to approximately 4 × 10^6 CFU/mL and dispended into 96-well polystyrene plates (Alkali Scientific, Fort Lauderdale, FL, USA) containing DMSO (control), vancomycin (0.5–4× MIC), or the indicated alkyl pyridinol compounds (0.5–4× MIC) and sealed with a breath-easy membrane (Fisherbrand, Waltham, MA, USA). The peripheral wells were filled with PBS to limit evaporation. The plates were incubated without agitation at 37 °C for 24 h, following which the planktonic cells were removed. The biofilms were washed twice with PBS, stained with 0.1% crystal violet (CV) for 15 min, and washed again twice with PBS to remove the unbound CV dye. CV bound to biofilm cells was extracted with 30% (v/v) glacial acetic acid, and the O.D.595nm was determined.

[3] = system: S. aureus strain USA300LAC; assay: Checkerboard assay with JC-01-074 (FIC index); conditions: MHB, 37 °C, 20 h, antibiotic combined with JC-01-074
Experimental: Therefore, we tested whether the membrane-disrupting effects of JC-01-074 could increase the sensitivity of the S. aureus strain USA300LAC to antibiotics of different classes; for instance, by facilitating their uptake into the cytoplasm. […] Antibiotic concentrations were prepared by the microbroth dilution in MHB based on their MIC values (Table 1) to obtain the final concentrations as outlined in the 96-well plate scheme for each antibiotic tested (Supplementary Figure S3). Overnight USA300LAC cultures were diluted to 5 × 10^5 CFU/mL in MHB, and the growth was recorded at 37 °C and 200 rpm for 20 h in the presence and absence of the indicated antibiotic.
FICs were calculated as the ratio of the MIC of the antimicrobial in combination with the MIC of the antimicrobial alone. Interactions were categorized as synergistic (<0.5), additive or no interaction (0.5–2), and antagonistic (>2). FICs were calculated from three biological replicates.
Following previous studies, the checkerboard assay was employed to determine whether JC-01-074 had synergistic effects in combination with members of different antibiotic classes. The indicated antibiotics tested in combination were first serially diluted two-fold in MHB on a longitudinal axis in a 96-well polystyrene plate. JC-01-074 was then serially diluted two-fold across the 96-well plate horizontal axis. The plates were inoculated with USA300LAC to a final inoculum concentration of 5 x10^5 CFU/mL (O.D.600nm = 0.0001) and incubated overnight at 37 °C for 20 h. The growth was measured at 600 nm in a Tecan 200 Infinite Pro microplate reader. The fractional inhibitory concentration was calculated as follows:FIC = MICJC-01-074 + antibiotics/[…]
The classification of interactions was based on the FIC index: interactions were categorized as synergistic (FIC ≤ 0.5), additive/no interaction (FIC 0.5–2.0), and antagonistic (FIC > 2.0).

MRSA USA300LAC = assay: MIC by broth microdilution (CLSI); conditions: Staphylococcus aureus, MRSA, 16 h
Experimental: The MIC values of the alkyl pyridinol derivatives against the S. aureus strain ATCC 25923, MRSA strains ATCC 33591, ATCC BAA-44, and USA300LAC, as well as the P. aeruginosa strain ATCC 27853, were determined by following the CLSI guidelines for the broth microdilution antibiotic sensitivity testing protocol. In brief, the overnight cultures were diluted into Mueller Hinton Broth (MHB) to a final inoculum concentration of 5 × 10^5 CFU/mL (O.D600nm = 0.00001) and dispensed into a 96-well polystyrene plate (Alkali Scientific, Fort Lauderdale, FL, USA). Alkyl pyridine compounds were diluted into inoculated MHB to the indicated concentrations from stock solutions that would allow for DMSO concentrations below 5%, resulting in a total volume of 200 μL per well. The plates were subsequently incubated at 37 °C for 16 h at 300 rpm. The MIC values, which are defined as the lowest compound concentration that inhibited growth, were determined from three biological replicates.

In the case of `CN[C@H](CC(C)C)C(=O)N[C@H]1C(=O)N[C@@H](CC(N)=O)C(=O)N[C@H]2C(=O)N[C@H]3C(=O)N[C@H](C(=O)N[C@H](C(=O)O)c4cc(O)cc(O)c4-c4cc3ccc4O)[C@H](O)c3ccc(c(Cl)c3)Oc3cc2cc(c3O[C@@H]2O[C@H](CO)[C@@H](O)[C@H](O)[C@H]2O[C@H]2C[C@](C)(N)[C@H](O)[C@H](C)O2)Oc2ccc(cc2Cl)[C@H]1O` [Vancomycin, reference compound], the “eradication of established biofilms” value [1] is reported as “neither JC-01-074 nor vancomycin successfully reduced established biofilms”, the “inhibition of biofilm formation” value [2] is reported as “failed to significantly inhibit biofilm formation” and the “interaction with JC-01-074 (sum of FIC values)” value [3] is reported as “additive (additive/no interaction (FIC 0.5–2.0))”. The MIC (MRSA USA300LAC) was 1 µg/mL (≈ 0.69 µM).
